Values quoted from earlier work as cited in US20050031690A1, “Stabilized prostaglandin formulation” (Pharmacia Corporation, priority 2003, published 2005).

Settings: solution state

pH region of relative stability: 3-4
Structure (SMILES): CCCCC[C@H](O)/C=C/[C@H]1[C@H](O)CC(=O)[C@@H]1CCCCCCC(=O)O [prostaglandin E1]
